Test results: patent EP0099122A2, “Compositions comprising pepstatin and an histamine H2-receptor antagonist having an enhanced antiulcer activity” (Bristol-Myers Company, priority 1982, dated 1984)
Read-outs that look alike come from different tables or passages of the source.

What was measured:
Heidenhain Pouch Dog = experiment: Gastric antisecretory activity in the Heidenhain Pouch Dog; type: in vivo, dogs; settings: 95% confidence limits in parentheses; for ED50: Canis lupus familiaris
Procedure: Determination of Gastric Antisecretory […] in the Heidenhain Pouch Dog Prior to surgery, hematology and blood chemistry profiles are obtained and an assessment made as to the general health of selected female dogs. Dogs are vaccinated with Tissue […]-Moore) and housed in general animal quarters for four weeks' observation so incipient diseases may become apparent. Dogs are fasted with water ad libitum 24 hours prior to surgery. […] Subsequent anesthesia is maintained with methoxy- flurane (Pitman-Moore). A mid-line linea alba incision from xiphoid to umbilicus provides good exposure and ease of closure. The stomach is pulled up into the operative fields the greater curvature stretched out at multiple points and clamps placed along the selected line of incision. The pouch is made from the corpus of the stomach so that true parietal cell juice is obtained. About 30% of the corpus volume is resected. The cannula is made of light-weight, biologically-inert material such as nylon or Delrin with dimensions and attachments after DeVito and […] fJ. Appl. Physiol., 14, 138 (1959)]. Post operatively, dogs are medicated with antibiotics and an analgesic. They are allowed 2-3 months for recovery. Experiments are carried out in the following way: […] The dogs are placed in a sling and a saphenous vein cannulated for drug administration. Histamine as the base (100 μg/kg/hr) and chlorpheniramine maleate (0.25 mg/kg/hr) are infused continuously (in a volume of 6 mL/hr) with a Harvard infusion pump. Ninety minutes' infusion are allowed for the dogs to reach a steady state of acid output. At this time the drug or normal saline (control) is administered concomitantly with the secretagogue in a volume of 0.5 mL/kg over a 30 second period. When oral studies are to be carried out, the drug is administered via gastric gavage in a volume of 5 mL/kg. Infusion of the secretagogue is continued and 15 minute samples of the gastric juice are taken for 4.5 hours. Each sample is measured to the nearest 0.5 mL and titratable acidity is determined by titrating a 1 mL sample to pH 7.0 with 0.2N NaOH, using an Autoburet and an electrometric pH meter '(Radiometer). Titratable acid output is calculated in microequivalents by multiplying the volume in milliliters by the acid concentration in milliequivalents per liter. Results are expressed as percent inhibition relative to control readings. Dose response curves are constructed and ED50 values are calculated by regression analyses. From 3 to 5 dogs are used at each dose level and a minimum of three dosage levels are utilized for determination of a dose response curve.

Gastric Fistula Rat = experiment: Gastric antisecretory activity in the Gastric Fistula Rat; type: in vivo, Long Evans rats; settings: sc; for ED50: Rattus norvegicus, read-out: ED50 sc
Procedure: Determination of Gastric Antisecretory Activity in the Gastric Fistula Rat
Male Long Evans rats weighing about 240-260 grams at the time of cannula implantation are used. […] The fistula components are designed and the operative procedure is carried out exactly as described in the above reference. Post operatively the animals are individually housed in solid bottom cages with sawdust and are allowed food and water ad libitum throughout the entire recovery period. Animals are not used for test purposes for at least 15 days after the operative procedure.
The animals are fasted but allowed water ad libitum for 20 hours before the testing procedure is to begin. Immediately prior to collection, the cannula is opened and the. stomach washed gently with 30-40 mL of warm saline or distilled water to remove any residual contents. The catheter is then screwed into the cannula in place of the plugging screw and the rat is placed in a clear plastic rectangular cage measuring 40 cm long, 15 cm wide and 13 cm high. The bottom of the cage has a slit approximately 1.5 cm wide and 25 cm long running down the center to accommodate the catheter which hangs through it. In this way the rat is not restricted and can move -freely about the cage during collection periods. The remainder of the assay is carried out as described by Ridley et al. [Research Comm. Chem. Path.
Gastric secretions collected during the first hour after washing the stomach are discarded as they may be contaminated. For oral evaluation, the catheter is then removed from the cannula and replaced with the plugging screw. Water (2 mL/kg) is administered orally via gastric intubation and the animal is returned to the cage for 45 minutes. After this time the plugging screw is removed and replaced with a catheter to which a small plastic vial has been attached to collect the gastric secretions. A two hour sample is collected (this represents the control secretion), the catheter removed and.replaced with the plugging screw. The test drug is now administered orally in a volume of 2 mL/kg via gastric intubation. Forty-five minutes later the plugging screw is again removed, replaced with the catheter attached to a small plastic vial and another 2 hour sample is collected. The secretions in the second sample are compared to those of the control sample in order to determine thee effects of the test drug.
When test compounds are to be evaluated parenterally, the animal is injected ip or sc with the test compound vehicle in a volume of 2 mL/kg immediately after discarding the initial 60 minute collection. A two hour sample is collected (control secretion) and the animals are injected either ip or sc with the test compound in a volume of 2 mL/kg. An additional two hour sample is collected and its secretions are compared to those of the control period to determing drug effects.
The samples are centrifuged in a graduated tube for volume determination. Titratable acidity is measured by titrating a one mL sample to pH 7.0 with 0.02N NaOH, using an Autoburet and an electrometric pH meter (Radiometer). Titratable acid output is calculated in microequivalents by multiplying the volume in milliliters by the acid concentration in milliequivalents per liter.
Results are expressed as percent inhibition relative to control readings. Dose response curves are constructed and ED50 values are calculated by regression analyses. At least three rats are used at each dosage level and a minimum of three dosage levels are utilized for determination of a dose response curve.

gastric acid secretion [1] = experiment: Inhibition of gastric acid secretion relative to cimetidine, various animal studies; type: in vivo; settings: inhibitors of gastric acid secretion, oral route
Procedure: Based on this potency difference, the oral dosage of the compounds of Examples 1 and 9 would be about 1/20 to 1/25 that of cimetidine, thus reducing the expected incidence of side effects. The usual oral dosage of cimetidine is 300 mg, given four times a day, while the usual dosage of the compounds of Examples 1 and 9 is about 12-15 mg, given four times a day. It was an object of this invention to further reduce the necessary dosage of the compounds of Formula I by the concomitant administration of a peptic activity- inhibitory amount of pepstatin. As will be shown below, such concomitant administration provides about a three-fold increase in potency compared with the administration of an equal amount of the compound of Formula I alone, thus permitting a further three-fold reduction in the dosage of the compound of Formula I.

[2] = tested on: HCl-Induced Formation of Gastric Lesions; experiment: HCl-induced gastric erosions in rats (modified method of Robert et al.); type: in vivo, Long Evans rats; settings: compound alone versus compound plus pepstatin (20 mg/kg po)
Procedure: (§1) In the tests described below, gastric erosions produced in rats by the oral instillation of 1.0 mL of 0.75N HC1 were compared with those in rats which had been pretreated with the most preferred compound of Formula I (of Example 1) or with that compound and pepstatin. Comparison tests utilizing pretreatment with the newer commercial product, ranitidine, and with ranitidine and pepstatin, are also shown. Ranitidine is about 4 and 6 times as potent as cimetidine as an inhibitor of gastric acid secretion by the oral route in the rat and dog, respectively.
A modification of the method of Robert et al., [Gastroenterology, 77, 433-443 (1979)] was employed to produce gastric erosions. Adult male, Long Evans rats weighing 280-300 g (Blue Spruce Farms, Alton, New York) were used. The animals were individually caged and food and water were removed 24 and 18 hours, respectively, prior to testing. On the following day, the test compound was administered orally to the animals 30 minutes before 1.0 mL of 0.75N HC1 was instilled into the stomach by gavage. Animals treated with the combination of the test compound and pepstatin received the test compound 30 minutes before, and a fixed amount of pepstatin (20 mg/kg po) 10 minutes before, the hydrochloric acid was administered. […] One hour after receiving the HC1 solution, the animals were sacrificed with an intraperitoneal injection of 0.2 mL of T-61®, a euthanasia solution (National Laboratories Corp.).
The stomachs were removed from the animals, cut along the greater curvature, opened, rinsed with saline and pinned out flat in a standard position for macroscopic examination and scoring of erosions. The stomachs were photographed with a Polaroid® Close Up camera (Polaroid Corporation) and scoring was determined from the photographs. For scoring purposes, only those erosions with a minimum length of 1 mm were considered. The severity of gastric ulceration was defined for each animal as the sum of the maximum continuous lengths (in mm) of the erosions satisfying the above criteria. Percent inhibition of lesion formation was defined as
(mm erosion, vehicle control') - (mm erosion, test agent) 100. (mm erosion, vehicle control)
Data were analyzed using the t-test for unpaired data' and ED50 values were calculated from the dose response data using probit analysis [Finney, Probit Analysis, 3rd ed., University Press, Cambridge, England (1971)].
The compound of Example 1 and ranitidine (synthesized by the Medicinal Chemistry Research Department of Bristol Laboratories, Division of.Bristol-Myers Company) were dissolved in one equivalent of HC1 and the pH adjusted to 5.5 with NaOH. A suspension of pepstatin (Banyu Pharmaceutical Co. Ltd.) in water was made by homogenizing the compound with a few drops of Tween-80® (Atlas Chemical Industries). Each of these compounds were administered orally by gavage in a volume of 2 mL/kg.

gastric acid secretion [3] = experiment: Inhibition of gastric acid secretion relative to cimetidine, oral route, dog; type: in vivo
Procedure: as §1

gastric acid secretion [4] = experiment: Inhibition of gastric acid secretion relative to cimetidine, oral route, rat; type: in vivo
Procedure: as §1

[5] = 95% confidence limits in parentheses

Compound | ED50 (Gastric Fistula Rat; [5]) | Potency Ratio [cimetidine = 1.0] (Gastric Fistula Rat; [5]) | other results
CN/C(=N/CCSCc1nc[nH]c1C)NC#N [Cimetidine, cimetidine, reference compound] | – | – | ED50 (Heidenhain Pouch Dog; INTRAVENOUS): 2.18 µmol/kg; ED50 (Heidenhain Pouch Dog; ORAL): 3.29 µmol/kg; ED50 (Gastric Fistula Rat): 3.8 µmol/kg
CN(C)Cc1ccc(CSCCNc2c(N)c(=O)c2=O)o1 [Example 2, 1-Amino-2-{2-[(5-dimethylaminomethyl-2-furyl)methylthio]ethyl-amino}cyclobutene-3,4-dione] | < 1 µmol/kg | >4 | Potency Ratio [cimetidine = 1.0] (Heidenhain Pouch Dog; INTRAVENOUS): ~20
CN(C)Cc1ccc(CSCCNc2c(N)c(=O)c2=O)s1 [Example 3, 1-Amino-2-{2-[(5-dimethylaminomethyl-2-thienyl)methylthio]ethyl-amino}cyclobutene-3,4-dione] | ~4 µmol/kg | ~1 | –
CN(C)Cc1cccc(OCCCNc2c(N)c(=O)c2=O)c1 [Example 9, 1-Amino-2-[3-(3-dimethylaminomethylphenoxy)propylamino]cyclobutene-3,4-dione] | 0.055 µmol/kg | 61 (20-204) | Potency Ratio [cimetidine = 1.0] (Heidenhain Pouch Dog; INTRAVENOUS): ~40; Potency Ratio [cimetidine = 1.0] (Heidenhain Pouch Dog; ORAL): ~20; times more potent than cimetidine (gastric acid secretion [1]): 20-25
Nc1c(NCCCOc2cccc(CN3CCCCCC3)c2)c(=O)c1=O [Example 10i, 1-amino-2-[3-(3-hexamethyleneiminomethylphenoxy)propylamino]-cyclobutene-3,4-dione] | 0.08 µmol/kg | 48 (21-97) | Potency Ratio [cimetidine = 1.0] (Heidenhain Pouch Dog; INTRAVENOUS): >40
Nc1c(NCCCOc2cccc(CN3CCCCCCC3)c2)c(=O)c1=O [Example 10j, 1-amino-2-[3-(3-heptamethyleneiminomethylphenoxy)propylamino]-cyclobutene-3,4-dione] | 0.044 µmol/kg | 88 (36-211) | –
Nc1c(NCCCOc2cccc(CN3CCCCCCCC3)c2)c(=O)c1=O [Example 10m, 1-amino-2-[3-(3-octamethyleneiminomethylphenoxy)propylamino]-cyclobutene-3,4-dione] | 0.7 µmol/kg | 5.4 (2.1-12) | –
CNc1c(NCCCOc2cccc(CN3CCCCC3)c2)c(=O)c1=O [Example 11, 1-Methylamino-2-[3-(3-piperidinomethylphenoxy)propylamino]cyclobutene-3,4-dione] | 0.067 µmol/kg | 50 (15-169) | –
O=c1c(NCCCOc2cccc(CN3CCCCC3)c2)c(NCc2cccnc2)c1=O [Example 12, 2-[3-(3-Piperidinomethylphenoxy)propylamino]-l-(3-pyridyl)methyl-aminocyclobutene-3,4-dione] | 0.094 µmol/kg | 44 (22-90) | –
C#CCNc1c(NCCCOc2cccc(CN3CCCCC3)c2)c(=O)c1=O [Example 14d] | 0.031 µmol/kg | 124 (62-243) | –
CNC(=C[N+](=O)[O-])NCCSCc1ccc(CN(C)C)o1 [Ranitidine, ranitidine] | – | – | Potency Ratio [2]: 1.18; times as potent as cimetidine as an inhibitor of gastric acid secretion (gastric acid secretion [3]): ~6; times as potent as cimetidine as an inhibitor of gastric acid secretion (gastric acid secretion [4]): about 4
